Results as given in patent publication EP4768487A1, “FUSED LACTAM RING COMPOUND AND USE THEREOF” (Chengdu Zenitar Biomedical Technology Co., Ltd., priority 2023, dated 2025).

How the values were obtained:
[1] = Pharmacokinetic evaluation in Balb/c mice; assay type: in vivo; details: 1mg/kg, PO; for AUC(0-t) / Cmax / half-life: male, mouse, plasma
Procedure: Experimental objective: To understand the pharmacokinetic profiles of the compounds. Experimental basis: Technical guidelines for non-clinical pharmacokinetic studies of chemical drugs, 2014.
Experimental scheme: The pharmacokinetic profiles of the compounds were investigated by intravenous administration (1 mg·kg^-1) and intragastric administration (1 mg·kg^-1) in Balb/c mice.
Sample preparation: About 0.2 mg of the compound was weighed out and dissolved in 10 µL of DMSO, and then a sodium chloride solution for injection was added to prepare a 0.1 mg·mL^-1 compound solution for later administration.
Three of the mice were subjected to intravenous administration (IV) at 1 mg·kg^-1, while the other three were subjected to intragastric administration (PO) at 1 mg·kg^-1. About 0.05 mL of blood was collected at 5 min, 15 min, 30 min, 1 h, 2 h, 4 h, 6 h, 8 h, 10 h, 24 h, and 48 h after administration. The collected blood was centrifuged at 3500 rpm for 15 min. The supernatant plasma was then collected and cryopreserved at -40 °C for later analysis. The plasma concentration was quantitatively analyzed using the LC-MS/MS method, and pharmacokinetic parameters such as […] (Cmax), area under plasma concentration-time curve (AUC(0-t)), half-life (T1/2), clearance rate (CL), tissue distribution (Vdss), and bioavailability (F) were calculated. Table 18. Results of pharmacokinetic test of compounds in Balb/c mice

[2] = tested on: CD34+ hematopoietic stem and progenitor cells (hmPB34-P-SC); test: Hematological toxicity assay (CellTiter-Glo 2.0); assay type: cell-based; details: 120 h; 5 days of culture
Procedure: The next day, the cells were resuspended and seeded in a 96-well plate at a concentration of 1000 cells/well, and meanwhile, different concentrations of the drug were added for treatment, with 3 replicate wells set for each concentration. After 5 days of culture, the number of viable cells in each well was determined using a CellTiter-Glo 2.0 kit, followed by detection by a microplate reader.

[3] = tested on: BRCA-mutated MDA-MB-436 cells; test: Anti-proliferative activity against cells (CCK8): MDA-MB-436; assay type: cell-based; details: Homo sapiens, 72 h + 96 h culture
[4] = target: T1, hERG potassium ion channel (Homo sapiens, UniProt Q12809); test: Inhibition of hERG potassium ion channel (Qpatch, CHO cells stably expressing hERG); assay type: cell-based; details: for inhibitory effects on the hERG potassium ion channel (in words): conclusion of Table 17; for inhibition at 2.5 min, 20 µM: human, CHO cells stably expressing hERG, read-out: Inhibition rate at 20 µM
T1 construct: expressed in transfected cells; host or cells: CHO cells
T1 sequence (Q12809 whole entry): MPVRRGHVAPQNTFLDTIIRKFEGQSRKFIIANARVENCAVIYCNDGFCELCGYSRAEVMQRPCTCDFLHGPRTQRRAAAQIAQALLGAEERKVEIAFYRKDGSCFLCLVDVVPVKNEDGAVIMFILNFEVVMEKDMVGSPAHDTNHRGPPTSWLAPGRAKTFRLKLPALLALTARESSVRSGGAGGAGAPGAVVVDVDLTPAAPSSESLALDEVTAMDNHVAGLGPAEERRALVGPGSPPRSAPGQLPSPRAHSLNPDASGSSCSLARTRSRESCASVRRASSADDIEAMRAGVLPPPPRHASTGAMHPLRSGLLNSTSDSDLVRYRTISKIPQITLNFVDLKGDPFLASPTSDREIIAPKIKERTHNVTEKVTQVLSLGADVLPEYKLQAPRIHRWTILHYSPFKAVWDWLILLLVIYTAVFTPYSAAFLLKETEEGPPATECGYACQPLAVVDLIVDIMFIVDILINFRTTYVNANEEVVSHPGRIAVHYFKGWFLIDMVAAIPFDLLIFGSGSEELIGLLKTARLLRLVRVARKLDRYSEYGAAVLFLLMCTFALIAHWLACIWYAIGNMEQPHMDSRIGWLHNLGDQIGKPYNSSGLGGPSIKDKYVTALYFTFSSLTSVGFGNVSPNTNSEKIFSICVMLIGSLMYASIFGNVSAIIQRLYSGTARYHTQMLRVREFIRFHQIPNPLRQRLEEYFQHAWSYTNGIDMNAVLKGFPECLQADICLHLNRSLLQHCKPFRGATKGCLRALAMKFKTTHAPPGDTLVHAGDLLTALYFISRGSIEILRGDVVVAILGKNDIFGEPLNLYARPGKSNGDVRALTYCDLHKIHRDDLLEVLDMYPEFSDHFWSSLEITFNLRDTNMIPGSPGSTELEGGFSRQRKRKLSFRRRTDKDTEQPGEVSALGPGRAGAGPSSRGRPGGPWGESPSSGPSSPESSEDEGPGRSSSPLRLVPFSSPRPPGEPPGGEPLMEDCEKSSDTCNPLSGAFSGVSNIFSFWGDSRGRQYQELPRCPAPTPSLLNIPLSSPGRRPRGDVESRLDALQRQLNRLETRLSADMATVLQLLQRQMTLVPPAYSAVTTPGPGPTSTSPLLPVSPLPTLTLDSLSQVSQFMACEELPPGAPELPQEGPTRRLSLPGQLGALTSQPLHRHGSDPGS
Procedure: Cell culture and treatment: CHO cells stably expressing hERG were cultured in a cell culture flask and incubated in an incubator with 5% CO2 at 37 °C. When the cell density reached 60%-80%, the cell culture medium was removed by pipetting. The cells were washed once with PBS, and then Detachin was added for detachment. After complete detachment, a culture medium was added for neutralization. The cells were then centrifuged, and the supernatant was removed by pipetting. A culture medium was further added for resuspension, and the cell density was adjusted to (2-5) × 10^6 cells/mL for later use.
Compound preparation: The compound stock solution was diluted with 100% DMSO. Specifically, 10 µL of the compound stock solution was added to 20 µL of DMSO, followed by a 3-fold serial dilution to obtain 6 concentrations. 4 µL of each of the 6 compound solutions at different concentrations was taken and added to 396 µL of an extracellular fluid, resulting in a 100-fold dilution to obtain 6 intermediate concentrations. Then, 80 µL of each of the 6 intermediate-concentration compound solutions was taken and added to 320 µL of an extracellular fluid, resulting in a 5-fold dilution to achieve the final test concentrations. The highest test concentration was 40 µM. […] DMSO at this concentration has no effect on the hERG potassium channel. During the compound preparation, the entire dilution process was completed by a Bravo instrument.
Electrophysiological recording process: The single-cell high-impedance sealing and whole-cell mode formation processes were all completed automatically by a Qpatch instrument. After achieving the whole-cell recording mode, the cells were clamped at -80 mV. Before a 5-second +40 mV depolarizing stimulus was applied, a 50-millisecond -50 mV prepulse voltage was first applied. The potential was then repolarized to -50 mV and held for 5 s, and finally returned to -80 mV. This voltage stimulation was applied every 15 s. After 2 min of recording, the extracellular fluid was administered, followed by recording for 5 min. Then, the compound administration process began, starting from the lowest test compound concentration. Each test concentration was applied for 2.5 min. After all the concentrations were applied consecutively, the positive control compound, 3 µM Cisapride, was administered. At least 3 cells (n ≥ 3) were tested for each concentration.
Data processing: Data analysis and processing were performed using GraphPad Prism 5.0 and Excel software. The IC50 of the compound was calculated using GraphPad Prism 5 software by equation fitting as follows: Y = Bottom + (Top−Bottom)/(1+10^(∧)((LogIC50−X)*HillSLope)) [formula] where X is the Log value of the test concentration of the test sample, Y is the inhibition percentage at the corresponding concentration, and Bottom and Top are the minimum and maximum inhibition percentages, respectively. Table 17. Results of inhibition of hERG potassium ion channel by compounds

[5] = tested on: BRCA wild-type DLD-1 cells; test: Anti-proliferative activity against cells (CCK8): DLD-1; assay type: cell-based; details: Homo sapiens, 72 h + 96 h culture
How it was run: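 DLD-1 cells (1000/well) in RPMI-1640 with 10% FBS, treated 24 h after plating with PARPi at 0, 1 or 10 µM final. Cultured 72 h, medium exchanged with re-added PARPi, then a further 96 h; read-out by CCK8.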

Row | SMILES | CL [1] [L/h/kg] | Vdss [1] [L/kg] | AUC(0-t) [1] [ng·h/mL] | Cmax [1] [ng/mL] | half-life [1] [min] | IC50 [2] [nM] | IC50 [3] [nM] | inhibitory effects on the hERG potassium ion channel (in words) [4] | inhibition at 2.5 min, 20 µM [4] [%] | IC50 [5] [nM]
1 | CCc1cc2c([nH]c1=O)CC(CN1CCN(c3ccc(C(=O)NC)nc3F)CC1)OC2 (stereo not shown) [Compound 2, 5-(4-((3-Ethyl-2-oxo-1,5,7,8-tetrahydro-2H-pyrano[4,3-b]pyridin-7-yl)methyl)piperazin-1-yl)-6-fluoro-N-methyl picolinamide] | 0.19 | 0.38 | 5400 | 2350 | 81.6 | 738 | 0.25 | Conclusion: Compounds 2, 6, 45, 62, 67, 74, 83, 87, etc., of the present disclosure exhibited relatively weak inhibitory effects on the hERG potassium ion channel. | 6.7 | > 1000
2 | CNC(=O)c1ccc(N2CCN(C[C@H]3CCc4nc(C)c(=O)[nH]c4C3)CC2)c(F)n1 [Example 45, (S)-6-Fluoro-N-methyl-5-(4-((2-methyl-3-oxo-3,4,5,6,7,8-hexahydroquinoxaline-6-yl)methyl)piperazin-1-yl)picolinamide] | 0.59 | 6.85 | 1540 | 359 | 479 | 331 | – | Conclusion: Compounds 2, 6, 45, 62, 67, 74, 83, 87, etc., of the present disclosure exhibited relatively weak inhibitory effects on the hERG potassium ion channel. | 13 | > 1000
3 | CNC(=O)c1ccc(N2CCN(CC3Cc4[nH]c(=O)c(C)cc4CO3)CC2)c(Cl)n1 (stereo not shown) [Example 74, 6-Chloro-N-methyl-5-(4-((3-methyl-2-oxo-1,5,7,8-tetrahydro-2H-pyrano[4,3-b]pyridin-7-yl)methyl)piperazin-1-yl)picolinamide] | – | 1.06 | 17100 | 2350 | 151 | > 1000 | 7 | Conclusion: Compounds 2, 6, 45, 62, 67, 74, 83, 87, etc., of the present disclosure exhibited relatively weak inhibitory effects on the hERG potassium ion channel. | 17.7 | > 1000
